Literature values, collected in US20250367153A1, “COMPOSITION AND APPLICATION THEREOF” (priority 2024, published 2025).

Columns and labels:
[1] = test system: rat, mouse, and guinea pig
[2] = test system: rat
[3] = test system: rats and dogs

**Q.** With `O=CC=Cc1ccccc1` [cinnamaldehyde] as the compound, how does the LD50 [1] read?
**A.** 3400 mg/kg

**Q.** With `OCC=Cc1ccccc1` [cinnamyl alcohol] as the compound, how does the LD50 [1] read?
**A.** 2675 mg/kg

**Q.** For `NCC(=O)O` [glycine], which “NOAEL (no-observed-adverse-effect level)” value [2] is on record?
**A.** at least 2000 mg/kg/day

**Q.** With phosphatidylserine as the compound, how does the “acute oral LD50” value ([3]; acute oral) read?
**A.** greater than 5 g/kg bw

**Q.** What about the NOAEL ([3]; rats and dogs) of the same compound?
**A.** 1,000 mg/kg bw/day
